Data taken from patent publication US20060052307A1, “Bone growth factor” (priority 2002, published 2006).
“And” between values parts separate entries of the source, which are not always exact repeats. Equal values may be shown once. Bridges are numbered along the chain shown (N, C = ends). Roman numbers before positions name the chains, in order. The star is where a group is joined. Cam = NC(=O)C*

Legend:
Sprague-Dawley rats [1] = assay: Bone mineral apposition rate after a single subcutaneous peptide injection, double tetracycline labelling, distal metaphysis of the right femur; format: in vivo, rat; design: Bone mineral apposition rate, group mean (Table 2): unit not given here; conditions: male rats; for BONE MINERAL APPOSITION, individual rats (Table 6) / Effect on bone mineral apposition / BONE MINERAL APPOSITION, MEAN (Table 6): Example 3, 300 nmoles/kg S.C.; for BONE MINERAL APPOSITION, MEAN (Table 6): control 1.62; for Effect on bone mineral apposition rate versus control / Bone mineral apposition rate, individual rats (Table 2) / Bone mineral apposition rate, group mean (Table 2): Example 1; for Bone mineral apposition rate, individual rats (Table 2) / Bone mineral apposition rate, group mean (Table 2): 300 nmoles/kg s.c. single dose; for Bone mineral apposition rate, group mean (Table 2): N=4, control 1.48
Protocol: Test peptides were administered by subcutaneous injection to the right gluteal region of the rats after being dissolved in a carrier buffer comprising PBS containing 0.1% heat inactivated BSA at pH 7.4. The dose was 300 nmoles/kg bodyweight in an injection volume of 400 μl.
Male Sprague-Dawley rats from Charles River Laboratory were used. The weight of the animals was approximately 350 g. They were housed in pairs in standard shoebox cages. Purina rat chow and tap water were provided ad libitum. The light/dark cycle was 12 hours, the temperature 22° C. and the humidity 50%. The animals were acclimatized for one week before initiating dosing.
Bone mineral apposition rate as measured for the distal metaphysis of the right femur was the parameter for the assessment of activity. Two doses of tetracycline hydrochloride (Sigma), 24 mg/kg body weight were administered I.M. in an injection volume of 800 μl to the left gluteus maximus muscle. The first dose was given immediately following the administration of the peptide, and the second dose 48 hours later. 24 hours after the second dose of tetracycline, the animals were sacrificed by carbon dioxide narcosis. The right femur was dissected clear of muscles and a 0.5 cm cross section of the bone 1 mm below the upper epiphyseal cartilage was taken and processed undecalcified for histological preparation of […]. Bone mineral apposition rate was measured in 15 randomly selected bone formation sites with two tetracycline labels in the trabecular bone. The arithmetic mean of these 15 sites was taken as the mean bone mineral apposition for the respective animals.
The dose of peptide was dissolved in 400 μl of buffer comprising of PBS with 0.1% of heat inactivated BSA and the method for the determination of bone mineral apposition rate was as described before.
Experimental design: Animals were grouped in four. All groups received a single dose of SEQ ID NO:2 (300 nmoles/kg) subcutaneously injected to the right gluteal region at Day 0 at approximately the same time within 15 minutes. Two doses tetracycline labeling at intervals of 48 hours was used to measure bone mineral apposition rate. The control group received buffer injection only.

Sprague-Dawley rats [2] = assay: as above; format: in vivo, rat; design: unit not given here; conditions: Example 2, 300 nmoles/kg s.c., N=3, control 1.18
[3] = Stability of peptides in solution, intact peptide remaining by HPLC peak height; format: physicochemical; conditions: pH 7.4
Protocol: Solvents for test peptides: Milli-Q water filtered through […] filter; resistance—18.2 Mega Ohms
Phosphate buffered saline: pH […] from Gibco (Cat. #100113-023)
20. mM sodium acetate buffer: pH 4.5 prepared with Milli-Q water and filtered through […] filter.
Peptides: The test peptides included those of SEQ ID NOs: 2, 3, 4 & 7.
Peptide preparation: Test peptides were dissolved in either PBS or sodium acetate buffer at a concentration of 0.2 mg per ml. The purity of the test peptides was greater than 95%.
Method for testing stability: Stability of the peptides was examined at pH7.4 and at room temperature, 4° C. and 37° C. The amount of intact peptide remaining over time was compared with the initial intact amount. The quantification of the amount of peptide was based on peak height in an HPLC profile.

Question: Which results are given for “SEQ ID NO: 8, dimer: dimer form of the peptide with SEQ ID NO: 8 (chain 1 Ac-RTNEHTADCK-NH2; chain 2 Ac-RTNEHTADCK-NH2; not fully specified (bridges); cysteine pairing not given here; also: dimer, linkage not given here)”?
Answer: BONE MINERAL APPOSITION, individual rats (Table 6) (Sprague-Dawley rats [1]): 1.39 µm/d and 1.43 µm/d and 1.42 µm/d and 1.36 µm/d; Effect on bone mineral apposition (Sprague-Dawley rats [1]): significantly inhibit; BONE MINERAL APPOSITION, MEAN (Table 6) (Sprague-Dawley rats [1]): 1.4 µm/d

Question: Which “Effect on bone mineral apposition rate versus control” value (Sprague-Dawley rats [1]; 300 nmoles/kg s.c.) does the source give for “SEQ ID NO: 7, dimer: dimerized form of the peptide having SEQ ID NO:7, disulfide bonding between the cysteine residues (chain 1 Ac-RTQEHTAECK-NH2; chain 2 Ac-RTQEHTAECK-NH2; disulfide I:9-II:9; also: disulfide-linked dimer)” here?
Answer: inhibitory effect

Question: What about the Bone mineral apposition rate, individual rats (Table 2) (Sprague-Dawley rats [1]) of the same substance?
Answer: 1.28 µm/d and 1.41 µm/d and 1.5 µm/d and 1.38 µm/d

Question: What about the “Bone mineral apposition rate, group mean (Table 2)” value (Sprague-Dawley rats [1]) of the same substance?
Answer: 1.39

Question: What about the BONE MINERAL APPOSITION, individual rats (Table 6) (Sprague-Dawley rats [1]) of the same substance?
Answer: 1.29 µm/d and 1.51 µm/d (2×)

Question: And the “Effect on bone mineral apposition” value (Sprague-Dawley rats [1])?
Answer: significantly inhibit

Question: What about the BONE MINERAL APPOSITION, MEAN (Table 6) (Sprague-Dawley rats [1]) of the same substance?
Answer: 1.43 µm/d

Question: Which BONE MINERAL APPOSITION, individual rats (Table 6) (Sprague-Dawley rats [1]) does the source give for “Ac-R T N E H T A D C K —NH2 (Ac-RTNEHTADCK-NH2) [SEQ ID NO: 8, monomer]” here?
Answer: 2.27 µm/d and 1.78 µm/d and 2.15 µm/d and 2.01 µm/d

Question: What about the “Effect on bone mineral apposition” value (Sprague-Dawley rats [1]) of the same substance?
Answer: significantly stimulated

Question: What about the BONE MINERAL APPOSITION, MEAN (Table 6) (Sprague-Dawley rats [1]) of the same substance?
Answer: 2.05 µm/d

Question: With K-T-Q-E-F-T-A-E-M-K [SEQ ID NO: 1] as the substance, how does the “Bone Mineral Apposition Rate, Mean rate (Table 4)” value (Sprague-Dawley rats [2]) read?
Answer: 1.61

Question: Which “Bone mineral apposition rate compared with the prior art peptide of SEQ ID NO: 7 (FIG. 5)” value (Sprague-Dawley rats [1]; Example 4, 300 nmoles/kg s.c.) does the source give for “SEQ ID NO: 5: peptide of SEQ ID NO:7 with a carboxyamidomethyl residue modifying cysteine at the 9-position of the decamer (Ac-RTQEHTAEC(Cam)K-NH2)” here?
Answer: significantly greater

Question: Which results are given for “Ac-R T Q E H T A E C K —NH2 (Ac-RTQEHTAECK-NH2) [SEQ ID NO: 7, monomer, prior art peptide]”?
Answer: Effect on bone mineral apposition rate versus control (Sprague-Dawley rats [1]; 300 nmoles/kg s.c.): significantly higher than the control group; Bone mineral apposition rate, individual rats (Table 2) (Sprague-Dawley rats [1]): 2.41 µm/d and 2.54 µm/d and 2.25 µm/d and 2.24 µm/d; Bone mineral apposition rate, group mean (Table 2) (Sprague-Dawley rats [1]): 2.36; BONE MINERAL APPOSITION, individual rats (Table 6) (Sprague-Dawley rats [1]): 1.91 µm/d and 1.73 µm/d (2×) and 2.06 µm/d; Effect on bone mineral apposition (Sprague-Dawley rats [1]): significantly stimulated; BONE MINERAL APPOSITION, MEAN (Table 6) (Sprague-Dawley rats [1]): 1.86 µm/d; Degradation in solution ([3]; 4° C. and room temperature, 6 months): totally degraded; Degradation in solution ([3]; 4° C. and room temperature, over three months): substantial degradation; Degradation in solution ([3]; 37° C., over 3 weeks): substantial degradation
